# Patent EP1149076B1, “O-THIOCARBAMOYL-AMINOALKANOL COMPOUNDS, THEIR PHARMACEUTICALLY ACCEPTABLE SALTS AND PROCESS FOR PREPARING THE SAME” (SK Corporation, priority 1999, dated 2000)
# Tests used:
# [1] = tested on: mice (CD-1 strain); experiment: Maximal ElectroShock (MES) test; format: in vivo; details: for ED50: Mus musculus
# [2] = tested on: mice (CD-1 strain); experiment: Forced Swimming Test; format: in vivo; details: duration of immobility, one hour prior to test, 15-minute test period
# Description: The therapeutic use of the compounds claimed in the present invention as antidepressants has been proven by the "Forced Swimming Test", a well known pharmacological screening methods for depression and the results are shown in the following Table II.
# The procedure described by Porsolt et al., (1997) was used. Test compound was administered p.o. and i.p. to mice (CD-1 strain), one hour prior to the animals being immersed in a 1500mL glass beaker (16.5cm deep, 13.0cm diameter) filled with water (20 ∼ 23°C) to about 5cm from the top. Mice were kept in the water for a period of 15 minutes and the duration of immobility observed within the 15-minute test period was recorded. A mouse was judged to be immobile if it floated motionlessly in the water making only those movements necessary to keep its head above the water.
SMILES,"Inhibition (reduction,%) ([2]; i.p. (30mg/kg)) [%]","Inhibition (reduction,%) ([2]; p.o. (30mg/kg)) [%]",further results
"NC(=S)OC[C@H](N)Cc1ccccc1 [[drawing] the 3rd table, row 2]",,,"ED50 ([1]; ip, 0.5h): 29 mg/kg; ED50 ([1]; po, 0.5h): 189 mg/kg"
CNC(=S)OC[C@H](N)Cc1ccccc1,,,"ED50 ([1]; ip, 1h): 20.9 mg/kg; MES (po, 30mg/kg) ([1]; po, 30mg/kg, 0.5h, mice protected / mice tested): 3/3 (0.5h)"
NC(=S)OCC(N)Cc1ccc(Cl)cc1 (racemic),30.6,38.1,
"CN(C)C(=S)OC[C@H](N)Cc1ccc(Cl)c(Cl)c1 [[drawing] the 3rd table, row 7]",,,"MES (ip, 30mg/kg) ([1]; ip, 30mg/kg, 4.0h, mice protected / mice tested): 1/3 (4.0h)"
CNC(=S)OCC(CN)c1ccccc1 (stereo not drawn),30.5,25.6,
"NC(=S)OC[C@H](N)Cc1ccccc1 [[drawing] the 2nd table, row 2]",41.6,,
CNC(=S)OCCC(N)c1ccccc1 (stereo not drawn),44.2,29.2,
"CN(C)C(=S)OC[C@H](N)Cc1ccc(Cl)c(Cl)c1 [[drawing] the 2nd table, row 12]",54.9,50.8,
CNC(=S)OC[C@@H](N)Cc1ccccc1,,,"ED50 ([1]; ip, 0.5h): 41.8 mg/kg; ED50 ([1]; po, 0.5h): 152 mg/kg"
CNC(=S)OCC(N)Cc1ccccc1F (racemic),,,"ED50 ([1]; ip, 1h): 24.7 mg/kg"
NC(=S)OC[C@@H](N)Cc1ccccc1,51.2,,
